{
  "source": "patent US10952433B2",
  "about": "“Solutions for enhancing the effectiveness of insecticides and fungicides on living plants and related methods” (priority 2015, dated 2021)",
  "key": {"[1]": {"tested_on": "lepidopteran larvae: cabbage loopers (Trichoplusia ni) and beet armyworms (Spodoptera exigua)", "type": "in vivo", "details": "plants", "experimental": "In a first group of tests, the results of which are shown in Table 7 (pages 22-24), romaine lettuce plants two to three inches in height were exposed to 10 milliliters of solution applied to each plant using a low volume trigger spray. With respect to containers 0-7, ten plants were employed per container, nine were treated and one was an internal control. In containers M-H, ten plants per container were used, five were treated and 5 were internal controls. Each container was infested with 30 lepidopteran larvae between the 5th and 6th instar development. Fifteen cabbage loopers (Trichoplusia ni) and 15 beet armyworms (Spodoptera exigua) were used to infest the romaine lettuce plants. Visual evaluations for the average percentage total surface area damage were taken 24 hours after infestation. Percentage damage was evaluated by 5% increments for total damage across all plant leaves.\nAs indicated in the first column of Table 7, in some tests, no insecticide was employed and there were two controls; a no water control and a no dye control. A wide variety of insecticides selected from the following group were tested: Chlorantranilopril, Acephate, Methoxyfenozide, Spinosad, Permethrin, and Indoxacarb. The product concentration is shown in PPM in column 2. Column 3 is divided into two subunits, the first being CO3 and the second, PO4. In all instances in columns 3, 4 and 5 and their sub-columns, the concentrations used were 200:1. The fourth column employed amine oxide, but no buffer. […] Two sub-columns each are represented for CO3 and PO4. The final column is a reading of the Percent Lepidopteran Damage to the romaine lettuce plants after 24 hours.\nIn addition to testing the buffered amine system of the present invention with the two amine oxides identified as CO3 and PO4 and their use with 12 carbon length and a mixture of 12 and 18 designated 1218 for comparative data purposes various differences were created in the testing. Some of the tests were performed with (a) no insecticide along with (b) no amine oxide for CO3 and PO4 and (c) with no buffer, but with amine oxide. Also, tests were run using no insecticide and no water control with no foliar application being made. Tests with no insecticide and no dye control employed foliar application of water only. The tests were conducted with all of the testing on the buffer alone, the amine oxide alone and the buffered amine oxide system of the present invention in the concentration of 200:1."}, "[2]": {"tested_on": "lepidopteran larvae: cabbage loopers (Trichoplusia ni) and beet armyworms (Spodoptera exigua)", "type": "in vivo", "details": "leaf discs", "text": "A second series of tests involved romaine lettuce discs approximately ⅝ inch in diameter. (L. sativa). They were dipped in the treatment solution one second per disc. This test involved the 5/5 configuration, i.e., 5 treated and 5 untreated. The infestation involved […] lepidopteran larvae at the 3rd to 4th instar development per container: four cabbage loopers (Trichoplusia ni), and four beet armyworms (Spodoptera exigua) were employed. The test containers were placed in a dark humidity cabinet at 15° C. and 80% relative humidity. Visual evaluations of the average percent damage were taken at 24, 48 and 72 hours after the initiation of infestation. Damage was evaluated in 5% increments based on total disc area.\nIn the tests reported in Table 8 pages 29-32), romaine lettuce leaf discs ⅝″ in diameter (L. sativa) were dipped in the treatment solution for about one second per disc. Infestation was provided by eight lepidopteran larvae at the 3rd to 4th instar development per container. Four cabbage loopers (Trichoplusia ni) and four beet armyworms (Spodoptera exigua) were employed in infestation. The containers were placed in a dark humidity cabinet at 15° C. and 80% relative humidity. Visual observations of the average percent damage was taken at 24, 48 and 72 hours after infestation. Damage evaluation was by 5% increments over the total disc area.\nIn the tests results provided in Table 8, the identity and concentrations of the insecticide was identical to the tests results reported in Table 7. The concentration of 200:1 was employed for the no amino oxide, no buffer and buffered amine oxide system. This series of tests, however, reported how the percent damage changed with time at the respective 24, 48 and 72 hour intervals."}, "[3]": {"details": "insecticide + CO3 buffer 200:1, no amine oxide, PPM: Chlorantranilopril 60, Acephate 70, Methoxyfenozide 100, Spinosad 30, Permethrin 10, Indoxacarb 50"}, "[4]": {"details": "insecticide + PO4 buffer 200:1, no amine oxide, PPM: Chlorantranilopril 60, Acephate 70, Methoxyfenozide 100, Spinosad 30, Permethrin 10, Indoxacarb 50"}, "[5]": {"details": "insecticide + amine oxide 12, no buffer, 200:1, PPM: Chlorantranilopril 60, Acephate 70, Methoxyfenozide 100, Spinosad 30, Permethrin 10, Indoxacarb 50"}, "[6]": {"details": "insecticide + amine oxide 1218, no buffer, 200:1, PPM: Chlorantranilopril 60, Acephate 70, Methoxyfenozide 100, Spinosad 30, Permethrin 10, Indoxacarb 50"}, "[7]": {"details": "insecticide + buffered amine oxide system CO3, 12, 200:1, PPM: Chlorantranilopril 60, Acephate 70, Methoxyfenozide 100, Spinosad 30, Permethrin 10, Indoxacarb 50"}, "[8]": {"details": "insecticide + buffered amine oxide system CO3, 1218, 200:1, PPM: Chlorantranilopril 60, Acephate 70, Methoxyfenozide 100, Spinosad 30, Permethrin 10, Indoxacarb 50"}, "[9]": {"details": "insecticide + buffered amine oxide system PO4, 12, 200:1, PPM: Chlorantranilopril 60, Acephate 70, Methoxyfenozide 100, Spinosad 30, Permethrin 10, Indoxacarb 50"}, "[10]": {"details": "insecticide + buffered amine oxide system PO4, 1218, 200:1, PPM: Chlorantranilopril 60, Acephate 70, Methoxyfenozide 100, Spinosad 30, Permethrin 10, Indoxacarb 50"}, "[11]": {"details": "insecticide alone, highest, PPM: Chlorantranilopril 120, Acephate 140, Methoxyfenozide 200, Spinosad 60, Permethrin 20, Indoxacarb 100"}, "[12]": {"details": "insecticide alone, increased, PPM: Chlorantranilopril 90, Acephate 105, Methoxyfenozide 150, Spinosad 45, Permethrin 15, Indoxacarb 75"}, "[13]": {"details": "insecticide alone, PPM: Chlorantranilopril 60, Acephate 70, Methoxyfenozide 100, Spinosad 30, Permethrin 10, Indoxacarb 50"}},
  "note": "Like-named read-outs stand apart in the source and are kept apart here.",
  "data": [
    {"smiles": "CNC(=O)c1cc(Cl)cc(C)c1NC(=O)c1cc(Br)nn1-c1ncccc1Cl", "note": "[Chlorantranilopril]", "values": [
      {"measurement": "Percent Lepidopteran Damage to Romaine Lettuce 24 hr", "setting": "[1]; [3]", "result": 13.5, "unit": "%"},
      {"measurement": "Percent Lepidopteran Damage to Romaine Lettuce 24 hr", "setting": "[1]; [4]", "result": 9.0, "unit": "%"},
      {"measurement": "Percent Lepidopteran Damage to Romaine Lettuce 24 hr", "setting": "[1]; [5]", "result": 9.0, "unit": "%"},
      {"measurement": "Percent Lepidopteran Damage to Romaine Lettuce 24 hr", "setting": "[1]; [6]", "result": 5.5, "unit": "%"},
      {"measurement": "Percent Lepidopteran Damage to Romaine Lettuce 24 hr", "setting": "[1]; [7]", "result": 2.5, "unit": "%"},
      {"measurement": "Percent Lepidopteran Damage to Romaine Lettuce 24 hr", "setting": "[1]; [8]", "result": 2.5, "unit": "%"},
      {"measurement": "Percent Lepidopteran Damage to Romaine Lettuce 24 hr", "setting": "[1]; [9]", "result": 4.0, "unit": "%"},
      {"measurement": "Percent Lepidopteran Damage to Romaine Lettuce 24 hr", "setting": "[1]; [10]", "result": 0.0, "unit": "%"},
      {"measurement": "Percent Lepidopteran Damage to Romaine Lettuce 24 hr", "setting": "[1]; [11]", "result": 8.5, "unit": "%"},
      {"measurement": "Percent Lepidopteran Damage to Romaine Lettuce 24 hr", "setting": "[1]; [12]", "result": 8.2, "unit": "%"},
      {"measurement": "Percent Lepidopteran Damage to Romaine Lettuce 24 hr", "setting": "[1]; [13]", "result": 10.5, "unit": "%"},
      {"measurement": "Percent Lepidopteran Damage to Romaine Lettuce 24 hr", "setting": "[2]; [3]", "result": 13.0, "unit": "%"},
      {"measurement": "Percent Lepidopteran Damage to Romaine Lettuce 24 hr", "setting": "[2]; [4]", "result": 14.0, "unit": "%"},
      {"measurement": "Percent Lepidopteran Damage to Romaine Lettuce 24 hr", "setting": "[2]; [5]", "result": 4.5, "unit": "%"},
      {"measurement": "Percent Lepidopteran Damage to Romaine Lettuce 24 hr", "setting": "[2]; [6]", "result": 10.5, "unit": "%"},
      {"measurement": "Percent Lepidopteran Damage to Romaine Lettuce 24 hr", "setting": "[2]; [7]", "result": 3.0, "unit": "%"},
      {"measurement": "Percent Lepidopteran Damage to Romaine Lettuce 24 hr", "setting": "[2]; [8]", "result": 1.0, "unit": "%"},
      {"measurement": "Percent Lepidopteran Damage to Romaine Lettuce 24 hr", "setting": "[2]; [9]", "result": 4.5, "unit": "%"},
      {"measurement": "Percent Lepidopteran Damage to Romaine Lettuce 24 hr", "setting": "[2]; [10]", "result": 6.5, "unit": "%"},
      {"measurement": "Percent Lepidopteran Damage to Romaine Lettuce 24 hr", "setting": "[2]; [11]", "result": 9.5, "unit": "%"},
      {"measurement": "Percent Lepidopteran Damage to Romaine Lettuce 24 hr", "setting": "[2]; [12]", "result": 7.5, "unit": "%"},
      {"measurement": "Percent Lepidopteran Damage to Romaine Lettuce 24 hr", "setting": "[2]; [13]", "result": 4.5, "unit": "%"},
      {"measurement": "Percent Lepidopteran Damage to Romaine Lettuce 48 hr", "setting": "[2]; [3]", "result": 17.5, "unit": "%"},
      {"measurement": "Percent Lepidopteran Damage to Romaine Lettuce 48 hr", "setting": "[2]; [4]", "result": 22.5, "unit": "%"},
      {"measurement": "Percent Lepidopteran Damage to Romaine Lettuce 48 hr", "setting": "[2]; [5]", "result": 8.0, "unit": "%"},
      {"measurement": "Percent Lepidopteran Damage to Romaine Lettuce 48 hr", "setting": "[2]; [6]", "result": 17.5, "unit": "%"},
      {"measurement": "Percent Lepidopteran Damage to Romaine Lettuce 48 hr", "setting": "[2]; [7]", "result": 5.0, "unit": "%"},
      {"measurement": "Percent Lepidopteran Damage to Romaine Lettuce 48 hr", "setting": "[2]; [8]", "result": 2.0, "unit": "%"},
      {"measurement": "Percent Lepidopteran Damage to Romaine Lettuce 48 hr", "setting": "[2]; [9]", "result": 12.5, "unit": "%"},
      {"measurement": "Percent Lepidopteran Damage to Romaine Lettuce 48 hr", "setting": "[2]; [10]", "result": 12.5, "unit": "%"},
      {"measurement": "Percent Lepidopteran Damage to Romaine Lettuce 48 hr", "setting": "[2]; [11]", "result": 17.5, "unit": "%"},
      {"measurement": "Percent Lepidopteran Damage to Romaine Lettuce 48 hr", "setting": "[2]; [12]", "result": 14.0, "unit": "%"},
      {"measurement": "Percent Lepidopteran Damage to Romaine Lettuce 48 hr", "setting": "[2]; [13]", "result": 9.0, "unit": "%"},
      {"measurement": "Percent Lepidopteran Damage to Romaine Lettuce 72 hr", "setting": "[2]; [3]", "result": 19.5, "unit": "%"},
      {"measurement": "Percent Lepidopteran Damage to Romaine Lettuce 72 hr", "setting": "[2]; [4]", "result": 24.5, "unit": "%"},
      {"measurement": "Percent Lepidopteran Damage to Romaine Lettuce 72 hr", "setting": "[2]; [5]", "result": 8.5, "unit": "%"},
      {"measurement": "Percent Lepidopteran Damage to Romaine Lettuce 72 hr", "setting": "[2]; [6]", "result": 18.5, "unit": "%"},
      {"measurement": "Percent Lepidopteran Damage to Romaine Lettuce 72 hr", "setting": "[2]; [7]", "result": 5.0, "unit": "%"},
      {"measurement": "Percent Lepidopteran Damage to Romaine Lettuce 72 hr", "setting": "[2]; [8]", "result": 2.0, "unit": "%"},
      {"measurement": "Percent Lepidopteran Damage to Romaine Lettuce 72 hr", "setting": "[2]; [9]", "result": 13.0, "unit": "%"},
      {"measurement": "Percent Lepidopteran Damage to Romaine Lettuce 72 hr", "setting": "[2]; [10]", "result": 12.5, "unit": "%"},
      {"measurement": "Percent Lepidopteran Damage to Romaine Lettuce 72 hr", "setting": "[2]; [11]", "result": 17.5, "unit": "%"},
      {"measurement": "Percent Lepidopteran Damage to Romaine Lettuce 72 hr", "setting": "[2]; [12]", "result": 15.0, "unit": "%"},
      {"measurement": "Percent Lepidopteran Damage to Romaine Lettuce 72 hr", "setting": "[2]; [13]", "result": 9.0, "unit": "%"}
    ]}
  ]
}
